Data: US8841321B2, “Quinoline derivatives as antibacterial agents” (Janssen Pharmaceutica NV, priority 2005, dated 2014)
Values after ≈ are worked out from the molar mass of the structure shown.

Tests used:
Assay in all cases: Microtitre plate assay, IC90 determination
Type in all cases: cell-based
[1] = test system: BSU 43639 (Bacillus subtilis (ATCC43639)); settings: for IC90 (μg/ml) BSU 43639: Bacillus subtilis (ATCC43639); for IC90: Bacillus subtilis, ATCC43639, Bacillus subtilis (ATCC43639), read-out: IC90 (μg/ml) BSU 43639
[2] = test system: EFA 29212 (Enterococcus faecalis (ATCC29212)); settings: for IC90 (μg/ml) EFA 29212: Enterococcus faecalis (ATCC29212)
[3] = test system: PAE 27853 (Pseudomonas aeruginosa (ATCC27853)); settings: for IC90 (μg/ml) PAE 27853: Pseudomonas aeruginosa (ATCC27853); for IC90: Pseudomonas aeruginosa, ATCC27853, Pseudomonas aeruginosa (ATCC27853), read-out: IC90 (μg/ml) PAE 27853
[4] = test system: STA 25923 (Staphylococcus aureus (ATCC25923)); settings: Staphylococcus aureus (ATCC25923)
[5] = test system: SPY 8668 (Streptococcus pyogens (ATCC8668)); settings: for IC90 (μg/ml) SPY 8668: Streptococcus pyogens (ATCC8668); for IC90: Streptococcus, ATCC8668, Streptococcus pyogens (ATCC8668), read-out: IC90 (μg/ml) SPY 8668
[6] = test system: STA 29213 (Staphylococcus aureus (ATCC29213)); settings: for IC90 (μg/ml) STA 29213: Staphylococcus aureus (ATCC29213)
Method in brief: (§1)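 Growth-inhibition endpoint: resazurin added 3 h after inoculation, plates incubated overnight, fluorescence at 530/590 nm after 24 h at 37 °C. Inocula of roughly 10–60 CFU per well in Mueller-Hinton medium; compounds titrated five-fold. IC90 reported as μg/ml.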

[7] = test system: SPN 6305 (Streptococcus pneumoniae (ATCC6305)); settings: Streptococcus pneumoniae (ATCC6305)
Method in brief: as §1

[8] = test system: STA RMETH (methicilline resistant Staphylococcus aureus (MRSA), a clinical isolate from the University of Antwerp)
[9] = test system: LMO 49594 (Listeria monocytogenes (ATCC49594)); settings: for IC90 (μg/ml) LMO 49594: Listeria monocytogenes (ATCC49594); for IC90: Listeria monocytogenes, ATCC49594, Listeria monocytogenes (ATCC49594), read-out: IC90 (μg/ml) LMO 49594

Row | SMILES | IC90 (μg/ml) BSU 43639 [1] [µg/mL] | IC90 (μg/ml) EFA 29212 [2] [µg/mL] | IC90 (μg/ml) PAE 27853 [3] [µg/mL] | IC90 (μg/ml) STA 25923 [4] [µg/mL] | IC90 (μg/ml) SPY 8668 [5] [µg/mL] | IC90 (μg/ml) STA 29213 [6] [µg/mL] | IC90 (μg/ml) SPN 6305 [7] [µg/mL] | IC90 (μg/ml) STA RMETH [8] [µg/mL] | IC90 (μg/ml) LMO 49594 [9] [µg/mL] | IC90 [1] [µg/mL] | IC90 ([2]; Enterococcus faecalis, ATCC29212, Enterococcus faecalis (ATCC29212), read-out: IC90 (μg/ml) EFA 29212) [µg/mL] | IC90 [3] [µg/mL] | IC90 [5] [µg/mL] | IC90 ([8]; Staphylococcus aureus, MRSA, read-out: IC90 (μg/ml) STA RMETH) [µg/mL] | IC90 [9] [µg/mL] | IC90 ([6]; Staphylococcus aureus, ATCC29213, Staphylococcus aureus (ATCC29213), read-out: IC90 (μg/ml) STA 29213) [µg/mL]
1 | COc1nc2ccc(Br)cc2cc1C(c1ccccc1)C(O)(CCCN1CCCC1)c1ccc2ccccc2c1 (racemic) [Compound 48] | 59.6 (≈ 100 µM) | 59.6 (≈ 100 µM) | 47.3 (≈ 79.4 µM) | 9.4 (≈ 15.8 µM) | 47.3 (≈ 79.4 µM) | 47.3 (≈ 79.4 µM) | 59.6 (≈ 100 µM) | 9.4 (≈ 15.8 µM) | 23.7 (≈ 39.8 µM) | – | – | – | – | – | – | –
2 | CNCCCCC(O)(c1ccc2ccccc2c1)C(c1ccccc1)c1cc2cc(Br)ccc2nc1OC (racemic) [Compound 75] | – | 4.03 (≈ 7.08 µM) | 2.02 (≈ 3.55 µM) | – | 1.8 (≈ 3.16 µM) | 2.02 (≈ 3.55 µM) | 0.9 (≈ 1.58 µM) | 11.36 (≈ 19.9 µM) | – | – | – | – | – | – | – | –
3 | CSc1nc2ccc(Br)cc2cc1C(c1ccccc1)C(O)(CCCCN(C)C)c1ccc2ccccc2c1 (single isomer, unassigned) [Compound 4] | – | – | – | – | – | 1.9 (≈ 3.17 µM) | 1.9 (≈ 3.17 µM) | – | – | 9.5 (≈ 15.8 µM) | 9.5 (≈ 15.8 µM) | 1.9 (≈ 3.17 µM) | 1.9 (≈ 3.17 µM) | 9.5 (≈ 15.8 µM) | 9.5 (≈ 15.8 µM) | –
4 | COc1ccc2cc(C(O)(CCCCN(C)C)C(c3ccccc3)c3cc4cc(Br)ccc4nc3OC)ccc2c1 (single isomer, unassigned) [Compound 6] | 9.7 (≈ 15.8 µM) | 9.7 (≈ 15.8 µM) | 9.7 (≈ 15.8 µM) | – | 1.9 (≈ 3.1 µM) | 4.3 (≈ 7.01 µM) | 4.9 (≈ 7.99 µM) | 9.7 (≈ 15.8 µM) | 9.7 (≈ 15.8 µM) | – | – | – | – | – | – | –
5 | COc1nc2ccc(Br)cc2cc1C(c1ccccc1)C(O)(CCCCN1CCN(C)CC1)c1ccc2ccccc2c1 (single isomer, unassigned) [Compound 112] | – | 2.02 (≈ 3.16 µM) | 2.02 (≈ 3.16 µM) | – | 2.02 (≈ 3.16 µM) | 2.02 (≈ 3.16 µM) | 2.54 (≈ 3.98 µM) | 2.54 (≈ 3.98 µM) | – | – | – | – | – | – | – | –
6 | COc1nc2ccc(Br)cc2cc1C(c1ccccc1)C(O)(CCCCN1CCN(C)CC1)CCc1ccccc1 (single isomer, unassigned) [Compound 137] | – | 9.77 (≈ 15.8 µM) | 9.77 (≈ 15.8 µM) | – | 1.95 (≈ 3.16 µM) | 1.95 (≈ 3.16 µM) | 1.95 (≈ 3.16 µM) | 12.3 (≈ 19.9 µM) | – | – | – | – | – | – | – | –
7 | COc1nc2ccc(Br)cc2cc1C(c1ccccc1)C(O)(CCCCN1CCN(C)CC1)CCc1ccccc1 (single isomer, unassigned) [Compound 138] | – | 1.74 (≈ 2.82 µM) | 2.19 (≈ 3.55 µM) | – | 0.87 (≈ 1.41 µM) | 2.45 (≈ 3.97 µM) | 2.19 (≈ 3.55 µM) | 12.3 (≈ 19.9 µM) | – | – | – | – | – | – | – | –
8 | COc1nc2ccc(Br)cc2cc1C(c1ccccc1)C(O)(CCCCN1CCN(C)CC1)CCc1ccc(C)cc1 (single isomer, unassigned) [Compound 141] | – | 4.46 (≈ 7.07 µM) | 4.46 (≈ 7.07 µM) | – | 4.46 (≈ 7.07 µM) | 1.99 (≈ 3.16 µM) | 1.99 (≈ 3.16 µM) | 14.12 (≈ 22.4 µM) | – | – | – | – | – | – | – | –
9 | CSc1nc2ccc(Br)cc2cc1C(c1ccccc1)C(O)(CCCCN(C)C)c1ccccc1 (centres unmarked) [Compound 1] | – | 6.92 (≈ 12.6 µM) | 1.95 (≈ 3.55 µM) | – | 1.74 (≈ 3.17 µM) | 1.74 (≈ 3.17 µM) | 1.74 (≈ 3.17 µM) | 12.3 (≈ 22.4 µM) | – | – | – | – | – | – | – | –
10 | CSc1nc2ccc(Br)cc2cc1C(c1ccccc1)C(O)(CCCCN(C)C)c1ccccc1 (centres unmarked) [Compound 2] | – | 43.7 (≈ 79.5 µM) | 43.7 (≈ 79.5 µM) | – | 8.7 (≈ 15.8 µM) | 43.7 (≈ 79.5 µM) | 21.9 (≈ 39.8 µM) | 43.7 (≈ 79.5 µM) | – | 43.7 (≈ 79.5 µM) | – | – | – | – | 43.7 (≈ 79.5 µM) | –
11 | COc1nc2ccc(Br)cc2cc1C(c1ccccc1)C(O)(CCCCN(C)C)c1ccc2cc(Br)ccc2c1 (centres unmarked) [Compound 7] | – | 10.5 (≈ 15.8 µM) | – | – | – | – | 2.4 (≈ 3.62 µM) | 10.5 (≈ 15.8 µM) | – | 10.5 (≈ 15.8 µM) | – | 10.5 (≈ 15.8 µM) | 10.5 (≈ 15.8 µM) | – | 10.5 (≈ 15.8 µM) | 2.1 (≈ 3.17 µM)
